Target: T1, UT-B (Mus musculus, UniProt Q8VHL0)
T1 sequence (Q8VHL0 1-384): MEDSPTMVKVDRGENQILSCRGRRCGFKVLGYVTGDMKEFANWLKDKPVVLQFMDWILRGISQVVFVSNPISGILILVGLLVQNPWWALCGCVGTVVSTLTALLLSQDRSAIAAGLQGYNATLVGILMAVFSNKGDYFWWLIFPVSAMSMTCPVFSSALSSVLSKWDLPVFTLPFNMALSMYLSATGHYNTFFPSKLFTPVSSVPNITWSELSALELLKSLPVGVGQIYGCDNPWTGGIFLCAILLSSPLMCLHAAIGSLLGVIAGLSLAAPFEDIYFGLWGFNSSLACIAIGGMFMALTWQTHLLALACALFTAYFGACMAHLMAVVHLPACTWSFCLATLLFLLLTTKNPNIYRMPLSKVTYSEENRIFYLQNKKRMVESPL
Assay: Erythrocyte lysis assay of UT-B inhibition
Type: cell-based
Set-up: Screening was performed using mouse erythrocytes, which strongly express UT-B; endogenous in cells; host or cells: erythrocytes in whole blood of wild-type CD1 mice
Conditions: not given
Method: Screening was performed using mouse erythrocytes, which strongly express UT-B and are highly water permeable because the cells also express aquaporin-1 (AQP1) water channels. The screening method involved assay of erythrocyte lysis in response to a large, outwardly directed gradient of acetamide, a urea analog that is transported efficiently by UT-B. A large, outwardly directed gradient of acetamide causes transient cell swelling, but little cell lysis, because UT-B-facilitated acetamide efflux limits water influx (see FIG. 1A). UT-B inhibition prevents acetamide efflux, allowing unopposed cell swelling and consequent cell lysis, which was recorded by reduced near-infrared light absorption at 710 nm.
Primary screening was done using a collection of 100,000 diverse, drug-like compounds from commercial sources (ChemDiv, San Diego, Calif.; Asinex, Winston-Salem, N.C.). […] Vigorous mixing was achieved by repeated pipetting. Erythrocyte lysis was quantified by absorbance at 710 nm wavelength, made within 5 min after hypo-osmolar shock. […] For analysis of structure-activity relationships >900 commercially available analogs (ChemDiv and Asinex) were tested.

Row | SMILES | IC50
1 | CCc1ccc(S(=O)(=O)c2nnn3c2nc(N2CCOCC2)c2sccc23)cc1 [Compound 2bq] | 5.71 µM

Same assay, conditions: Table 1, commercially available analogues, erythrocyte lysis assay; read-out: IC50

Row | SMILES | IC50
2 | NC(=O)C1CCN(c2nc3c(S(=O)(=O)c4ccccc4)nnn3c3ccsc23)CC1 [Compound 2aa] | 7.66 µM
3 | Cc1ccc(S(=O)(=O)c2nnn3c2nc(NCc2ccco2)c2sccc23)cc1 [Compound 2ac, furan-2-ylmethyl-[3-(4-methyl-benzenesulfonyl)-thieno[2,3-e][1,2,3]triazolo[1,5-a]pyrimidin-5-yl]-amine] | 2.15 µM
4 | Cc1ccc(S(=O)(=O)c2nnn3c2nc(NCC2CCCO2)c2sccc23)cc1 (stereo not drawn) [Compound 2ae, tetrahydrofuran-2-ylmethyl-[3-(4-methyl-benzenesulfonyl)-thieno[2,3-e][1,2,3]triazolo[1,5-a]pyrimidin-5-yl]-amine] | 5.74 µM
5 | Cc1ccc(S(=O)(=O)c2nnn3c2nc(NCCCOC(C)C)c2sccc23)cc1 [Compound 2af, {3-[4-methyl-benzenesulfonyl]-thieno[2,3-e][1,2,3]triazolo[1,5-a]pyrimidin-5-yl}-3-(1-methylethoxyl)propyl-amine] | 11.7 µM
6 | Cc1ccc(S(=O)(=O)c2nnn3c2nc(NC(C)c2ccccc2)c2sccc23)cc1 (stereo not drawn) [Compound 2ag, [3-(4-methyl-benzenesulfonyl)-thieno[2,3-e][1,2,3]triazolo[1,5-a]pyrimidin-5-yl]-(1-phenyl-1-methyl)methyl-amine] | 11.2 µM
7 | COc1cccc(CNc2nc3c(S(=O)(=O)c4ccc(C)cc4)nnn3c3ccsc23)c1 [Compound 2ah, [3-(4-methyl-benzenesulfonyl)-thieno[2,3-e][1,2,3]triazolo[1,5-a]pyrimidin-5-yl]-(3-methoxy-benzyl)-amine] | 2.75 µM
8 | COCCNc1nc2c(S(=O)(=O)c3ccc(C)cc3)nnn2c2ccsc12 [Compound 2ai, {3-[4-methyl-benzenesulfonyl]-thieno[2,3-e][1,2,3]triazolo[1,5-a]pyrimidin-5-yl}-2-methoxyethyl-amine] | 2.87 µM
9 | CCN1CCN(c2nc3c(S(=O)(=O)c4ccc(C)cc4)nnn3c3ccsc23)CC1 [Compound 2ak] | 7.88 µM
10 | Cc1ccc(S(=O)(=O)c2nnn3c2nc(NC2CCCC2)c2sccc23)cc1 [Compound 2al] | 6.38 µM
11 | CCN(CC)c1nc2c(S(=O)(=O)c3ccc(C)c(C)c3)nnn2c2ccsc12 [Compound 2ap] | 2.49 µM
12 | Cc1ccc(S(=O)(=O)c2nnn3c2nc(N2CCC(C(N)=O)CC2)c2sccc23)cc1C [Compound 2aq] | 2.12 µM
13 | Cc1ccc(S(=O)(=O)c2nnn3c2nc(NC(C)C)c2sccc23)cc1C [Compound 2av] | 2.19 µM
14 | Cc1ccc(S(=O)(=O)c2nnn3c2nc(NCCCOC(C)C)c2sccc23)cc1C [Compound 2ax, {3-[3,4-dimethyl-benzenesulfonyl]-thieno[2,3-e][1,2,3]triazolo[1,5-a]pyrimidin-5-yl}-3-(1-methylethoxyl)propyl-amine] | 2.48 µM
15 | COc1cccc(CNc2nc3c(S(=O)(=O)c4ccc(C)c(C)c4)nnn3c3ccsc23)c1 [Compound 2ay, [3-(3,4-dimethyl-benzenesulfonyl)-thieno[2,3-e][1,2,3]triazolo[1,5-a]pyrimidin-5-yl]-(3-methoxy-benzyl)-amine] | 3.77 µM
16 | COCCNc1nc2c(S(=O)(=O)c3ccc(C)c(C)c3)nnn2c2ccsc12 [Compound 2ba, {3-[3,4-dimethyl-benzenesulfonyl]-thieno[2,3-e][1,2,3]triazolo[1,5-a]pyrimidin-5-yl}-2-methoxyethyl-amine] | 2.5 µM
17 | Cc1ccc(S(=O)(=O)c2nnn3c2nc(NC2CCCCC2)c2sccc23)cc1C [Compound 2bb] | 8.19 µM
18 | Cc1ccc(S(=O)(=O)c2nnn3c2nc(NCc2ccc(F)cc2)c2sccc23)cc1C [Compound 2be, [3-(3,4-dimethyl-benzenesulfonyl)-thieno[2,3-e][1,2,3]triazolo[1,5-a]pyrimidin-5-yl]-(4-fluoro-benzyl)-amine] | 5.64 µM
19 | COCCCNc1nc2c(S(=O)(=O)c3ccc(Cl)cc3)nnn2c2ccsc12 [Compound 2bj, {3-[4-chloro-benzenesulfonyl]-thieno[2,3-e][1,2,3]triazolo[1,5-a]pyrimidin-5-yl}-3-methoxypropyl-amine] | 2.31 µM

Results, then the molecule that gave them:

Row | IC50 | SMILES
20 | 2.66 µM | CC(C)c1ccc(S(=O)(=O)c2nnn3c2nc(NCC2CCCO2)c2sccc23)cc1 (stereo not drawn) [Compound 2bk, tetrahydrofuran-2-ylmethyl-[3-(4-isopropyl-benzenesulfonyl)-thieno[2,3-e][1,2,3]triazolo[1,5-a]pyrimidin-5-yl]-amine]
21 | 4.08 µM | CCOCCCNc1nc2c(S(=O)(=O)c3ccc(C(C)C)cc3)nnn2c2ccsc12 [Compound 2bl, {3-[4-isopropyl-benzenesulfonyl]-thieno[2,3-e][1,2,3]triazolo[1,5-a]pyrimidin-5-yl}-3-ethoxylpropyl-amine]
22 | 1.54 µM | CCc1ccc(S(=O)(=O)c2nnn3c2nc(NC2CCCC2)c2sccc23)cc1 [Compound 2bz]
23 | 0.59 µM | CCc1ccc(S(=O)(=O)c2nnn3c2nc(N2CCN(C)CC2)c2sccc23)cc1 [Compound 2cc]
24 | 11.9 µM | CCc1ccc(S(=O)(=O)c2nnn3c2nc(N2CCN(CC)CC2)c2sccc23)cc1 [Compound 2cd]
25 | 8.46 µM | CCc1ccc(S(=O)(=O)c2nnn3c2nc(NCCN(C)C)c2sccc23)cc1 [Compound 2ch]
26 | 3.34 µM | Cc1ccc(C)c(S(=O)(=O)c2nnn3c2nc(N2CCC(C(N)=O)CC2)c2sccc23)c1 [Compound 2ci]
27 | 9.85 µM | CCOCCCNc1nc2c(S(=O)(=O)c3cc(C)ccc3C)nnn2c2ccsc12 [Compound 2ck, {3-[2,5-dimethyl-benzenesulfonyl]-thieno[2,3-e][1,2,3]triazolo[1,5-a]pyrimidin-5-yl}-3-ethoxypropyl-amine]
28 | 2.06 µM | Cc1ccc(C)c(S(=O)(=O)c2nnn3c2nc(NCCCOC(C)C)c2sccc23)c1 [Compound 2cl, {3-[2,5-dimethyl-benzenesulfonyl]-thieno[2,3-e][1,2,3]triazolo[1,5-a]pyrimidin-5-yl}-3-(1-methylethoxyl)propyl-amine]
29 | 0.702 µM | Cc1ccc(C)c(S(=O)(=O)c2nnn3c2nc(NC(C)c2ccccc2)c2sccc23)c1 (stereo not drawn) [Compound 2cm, [3-(2,5-dimethyl-benzenesulfonyl)-thieno[2,3-e][1,2,3]triazolo[1,5-a]pyrimidin-5-yl]-(1-phenyl-1-methyl)methyl-amine]
30 | 0.671 µM | Cc1ccc(C)c(S(=O)(=O)c2nnn3c2nc(NCc2ccc(F)cc2)c2sccc23)c1 [Compound 2cp, [3-(2,5-dimethyl-benzenesulfonyl)-thieno[2,3-e][1,2,3]triazolo[1,5-a]pyrimidin-5-yl]-(4-fluoro-benzyl)-amine]
31 | 1.65 µM | Cc1ccc(C)c(S(=O)(=O)c2nnn3c2nc(NCc2ccccc2)c2sccc23)c1 [Compound 2cq, [3-(2,5-dimethyl-benzenesulfonyl)-thieno[2,3-e][1,2,3]triazolo[1,5-a]pyrimidin-5-yl]-benzyl-amine]
32 | 2.66 µM | Cc1ccc(C)c(S(=O)(=O)c2nnn3c2nc(NCc2ccco2)c2sccc23)c1 [Compound 2cs, furan-2-ylmethyl-[3-(2,5-dimethyl-benzenesulfonyl)-thieno[2,3-e][1,2,3]triazolo[1,5-a]pyrimidin-5-yl]-amine]
33 | 3.14 µM | NC(=O)C1CCN(c2nc3c(S(=O)(=O)c4cccc(Cl)c4)nnn3c3ccsc23)CC1 [Compound 2cv]
